Assay results as given in US11351185B2, “Use of isovalerylspiramycins as anti-cancer agents to inhibit metastasis” (priority 2020, dated 2022).
Entries after “also recorded” stand apart in the source; their conditions may differ.

Key:
[1] = test system: intracellular ROS; assay: ROS-Glo H2O2 assay; type: cell-based; settings: 24 hours
Method: Since glutathione peroxidase catalyzes the reduction of reactive oxidative species (ROS), the inventors assessed whether treatment with ISP I increased the generation of ROS in glioblastoma cell lines (LN229 and U251) and RCC cell lines (786-O and RCC4).
Cell ROS level change brought about by ISP I was measured by ROS-Glo H2O2 assay kit, a product of Promega (Madison, Wis. USA). After treatment with ISP I for 24 hours, H2O2 substrate was added and cells were incubated for 6 hours. After incubation the supernatant was collected and was incubated with ROS-Glo™ Detection Solution for 20 min at room temperature with protection from light. Luciferase data were obtained with the Synergy H1 microplate reader, a product of BioTek (Winooski, Vt. USA).

[2] = test system: murine B16 cells (lung metastasis); assay: B16 melanoma lung metastasis mouse model; type: in vivo, C57BL/6 mice; settings: 35 mg/kg i.p. every day, 12 days; vs saline
Method: In addition to the aforementioned xenograft tumor models, the anti-tumor activity of ISP I was assessed in a metastatic murine melanoma (B16) model.
For metastasis study, C57BL/6 mice (4-5 weeks) from Charles River Laboratories (Wilmington, Mass. USA) were assigned randomly to one or another of two groups, 9 animals per group. B16-F10 mouse skin melanoma cells (2×10^5) were resuspended in 100 μl saline and injected through tail vein. After treatment with ISP I at 35 mg/kg for 12 days, all mice were euthanized, and the lungs were examined for counting black metastasis dots.

[3] = molecular target: T1, SELH (Homo sapiens, UniProt Q8IZQ5); assay: Western blot of SELH protein level in treated cells; type: cell-based; set-up: endogenous in cells; host or cells: LN229, 786-O, T98G, U118, U251, RCC4; settings: for SELH protein expression, different concentrations: LN229 cells, 24 hours post-treatment
T1 sequence (Q8IZQ5 1-122): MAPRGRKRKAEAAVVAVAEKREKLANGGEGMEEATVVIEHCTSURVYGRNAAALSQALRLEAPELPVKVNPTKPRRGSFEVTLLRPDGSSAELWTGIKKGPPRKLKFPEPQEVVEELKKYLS
Method: A cycloheximide (CHX) chase assay was completed to assess ISP I's effect on SELH protein degradation.
Western blotting was performed to detect the protein expression level of SELH, NRF2 and γH2AX regulated by ISP I. The cells were lysed by RIPA buffer from ThermoFisher Scientific, and the concentration was measured using DC Protein Assay, a Bio-Rad product. Equal amounts of protein of each sample were loaded for gel electrophoresis and were transferred to nitrocellulose membrane, blocked and incubated overnight at 4° C. with primary antibodies. Then the membranes were washed with TBST (3 times, 10 min each). Exposure, imaging, and data analysis were done using a KwikQuant Imager system, a product of Kindle Biosciences (Greenwich, Conn. USA). The following antibodies were used: anti-phospho-histone H2A.X (Ser139), anti-NRF2 (Cell Signaling, Danvers, Mass. USA), anti-SELH (Abcam, Cambridge, Mass. USA), anti-GAPDH (Millipore, Temecula, Calif. USA).

[4] = molecular target: T2, SELH (Sec44→Cys44) synthesized in bacteria (Homo sapiens, UniProt Q8IZQ5, U44C); assay: Surface plasmon resonance (SPR) assay, SELH; type: binding; settings: 25° C.
T2 construct: made in house
Excerpt: Next, the inventors used a thermo-stability assay to confirm SELH was targeted by ISP I in LN229 and 786-O cell lines. The principle of the assay is based on altered protein thermal stabilization/destabilization due to ligand binding in living cells. […] (FIG. 5B and FIG. 6A). To verify further the specificity of ISP I's targeting of SELH, the inventors designed a surface plasmon resonance assay to assess the interaction of ISP I with SELH synthesized in bacteria.
The affinities constant (KD) and kinetics (ka and kd) of ISP I binding to SELH (Sec44→Cys44) were assayed using Biacore 8K (GE Healthcare, Sweden), all at 25° C. […] Coupling conditions were determined by protein isoelectric points. […]
To determine the binding affinity between ISP I and SELH (Sec44→Cys44), a series of ISP I dilutions was analyzed by single-cycle kinetics. […] The ISP I at various gradient concentrations and one zero concentration (running buffer) flowed over the immobilized SELH, with 120 s for binding, followed by disassociation for 120 s, and the obtained response units (RUs) were recorded. The RU values were collected, and the binding affinity data were calculated by kinetic models (1:1 interaction) within Biacore 8K Evaluation Software. The equilibrium dissociation constant (KD) was calculated to evaluate the ability of ISP I to interact with SELH.

[5] = test system: 786-O and RCC4 cells; assay: Cell-cycle analysis by flow cytometry, RCC cells; type: cell-based
Method: To confirm the cytotoxic effect observed in the glioblastoma cell lines, the inventors assessed ISP I's effect on renal cell carcinoma (RCC) cell lines (ACHN, UM-RC-2, RCC4 and 786-0). Cell viability was assessed similarly via CKK8 analysis. […] (FIG. 4C, D).
For monitoring cell-cycle arrest of ISP I-treated cells, Click-iT EdU Flow Cytometry Assay Kits were used, a product of ThermoFisher Scientific. Cells were co-cultured with EdU at a concentration of 10 μM for 1 hour. After fixation and permeabilization, EdU-positive cells were labeled with Alexa Fluor 647 fluorescein. DAPI also was used for measuring total DNA content to identify differences in cell cycle phases. Data were collected by means of a BD LSRFortessa flow cytometer using FlowJo software. Cells that are positive with EdU and DAPI were in S-Phase of the cell cycle.

T2 sequence (Q8IZQ5 with tags, fused parts or gaps U44C): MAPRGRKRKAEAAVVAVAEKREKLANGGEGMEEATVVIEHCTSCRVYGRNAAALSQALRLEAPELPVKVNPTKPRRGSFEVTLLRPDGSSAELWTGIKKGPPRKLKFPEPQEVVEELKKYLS

Compound: COC1C(O)CC(=O)OC(C)CC=CC=CC(OC2CCC(N(C)C)C(C)O2)C(C)CC(CC=O)C1OC1OC(C)C(OC2CC(C)(O)C(OC(=O)CC(C)C)C(C)O2)C(N(C)C)C1O (stereo not drawn) [ISP I, 4″-isolvalerylspiramycin I]
- intracellular ROS level (ROS-Glo H2O2) ([1]; 786-O and RCC4, 10 μg/ml): increased intracellular ROS levels
- intracellular ROS level (ROS-Glo H2O2) ([1]; LN229 and U251, 10 μg/mL): increased intracellular ROS levels
- lung tumor nodules (melanoma spots) [2]: significantly reduced lung tumor nodules
- SELH protein levels in RCC cell lines ([3]; 786-O and RCC4, 10 μg/ml, 24 hours): decreased SELH levels; also recorded: inhibitory effect on SELH expression also was confirmed
- SELH protein expression, different concentrations [3]: reduced SELH protein expression in LN229 cells in a dose-dependent manner
- SELH protein expression, different concentrations ([3]; listed as ISP 1): decline, in a dose-dependent manner, of SELH levels
- SELH protein levels in glioblastoma cell lines ([3]; T98G, U118, LN229, U251, 10 μg/mL, 24 hours): decreased SELH levels; also recorded: inhibitory effect on SELH expression also was confirmed
- binding to SELH (SPR) [4]: tightly binds to SELH
- cell distribution in cell-cycle phases [5]: clear G0/G1 arrest; also recorded: induced cell-cycle arrest in the G0/G1 phase
